Measurements: patent US12012375B2, “Prostaglandin F2 alpha derivatives for decreasing intraocular pressure” (GURUS BIOPHARM LIMITED LIABILITY COMPANY, priority 2018, dated 2024)

Key:
3T3-L1 cells [1] = assay: Cytotoxicity, MTT assay of cell survival; format: cell-based; conditions: cultivated mice 3T3-L1 cells, 24 hours incubation
Procedure: (§1) 3T3-L1 cells were incubated at 95% humidity, in the 5% CO2 atmosphere, at 37° C. Cultivation was performed in DMEM medium comprising 7% FCS, 2 mM of glutamine, 100 U/ml of penicillin, 100 μg/ml of streptomycin and 0.25 μg/ml of amphotericin B. Cells were subcultured every 48-72 hours. For the purpose of suspending the cells were incubated in Versene's solution within 1 minute and in Trypsin-EDTA solution within 1 minute (0.25%).
(§2) Cells were inoculated by 30 thousand into wells of 96-well plate (monolayer) in 100 μl of medium for MTT-test. After 24 hours of cultivation 100 μl of test substances in the medium used for cell culture were added to the cells with replacement of culture medium with a new one. Cells were incubated with test substances for 24 hours. Cells, to which 100 μl of medium used for cell culture were added to, were used as […].
(§3) Assessment of cell survival in the culture using the MTT assay After the incubation, the medium was removed from each well, and then 100 μl of MTT solution were added to each well (0.5 mg/ml of MTT, 3.5 mg/ml of D-glucose in Hanks' solution). The plate was placed into CO2-incubator (Ependorf, Germany) for 1.5 h. After that, MTT was removed and 100 μl of DMSO were added to each well and mixed for 2 minutes in a shaker at 550 rpm. Then, the solution optical density was determined at the wavelength of 576 nm and 620 nm using a plate reader (EFOS 9305, OAO MZ Sapphir).

normotensive rabbits = assay: Reducing intraocular pressure after instillation in normotensive rabbits; format: in vivo, chinchilla rabbits; conditions: for IOP reduction: single instillation of 2 drops into both eyes, maximum value of 5 animals' average data within 6 hours
Procedure: The study was performed on chinchilla rabbits with a mass of 2.5-3 kg. IOP was measured by automatic manual veterinary tonometer Tonovet (Icare, Finland).
2 groups of rabbets were used for testing each sample:
5 animals instilled with a single dose of sample into both eyes.
5 animals instilled with a single dose of normal saline into both eyes.
All test samples were instilled by 2 drops by a disposable pipette. IOP was measured before instillation and further, every hour within 6 hours. All tested substances were capable of reducing intraocular pressure in normotensive rabbits.

3T3-L1 cells [2] = assay: Nitric oxide generation (modified Griess method); format: cell-based, mice; conditions: for NO generation, % to control: mice 3T3-L1 cells, concentration of 100 μM, 20 hours
Procedure: as §1, with “solution within 2-3 minutes and in” for “solution within 1 minute and in”, “Trypsin-EDTA solution (0.25%).” for “Trypsin-EDTA solution within 1 minute (0.25%).”
Cells were inoculated by 30 thousand into wells (monolayer) of 96-well plate in 100 μl of medium. Incubation with substances lasted 20 hours. After that, medium aliquot was sampled from each well, and NO concentration was determined by modified Griess method. 12.5 μl of 0.04% sulfanilamide water solution were added to 75 μl of test medium in wells of 96-well plate for EIA, held within 10 minutes at room temperature protected from light, then, 12.5 μl of 2% naphthylethylenediamine solution in 3M of HCl were added, held again for 10 minutes at room temperature protected from light, then the optical absorption was determined at the wavelength of 540 nm.

3T3-L1 cells [3] = assay: Increase of intracellular calcium concentration (Calcium Green fluorescence); format: cell-based, mice; conditions: 67 μM stated for the reference substances, for 10 minutes
Procedure: 3T3-L1 cells were cultivated in DMEM medium with addition of 10% fetal calf serum (FCS), 4 mM of L-glutamine, 100 U/ml of penicillin, 100 μg/ml of streptomycin, 2.5 μg/ml of amphotericin B. Cells were cultured in the atmosphere of 5% CO2, 95% humidity at 37° C. Cell density at the time of experiment was 7000 per well of a 96-well plate, Calcium Green dye (1.5 mM, loading in 0.4% Pluronic F-62 in incubation medium without BSA for 1 hour at 37° C., triple washing of 200 μl of incubation medium after loading), incubation medium: Hanks' solution, 1 g/l of D-glucose, 1 mg/ml of fat-free BSA, introduction of substances in ethanol (<0.5% final concentration), incubation at 25° C., detecting at the excitation wavelength 485 nm, emission wavelength 535 nm.

[4] = Cytotoxicity, MTT assay of cell survival; format: cell-based; conditions: mouse, cultivated mice 3T3-L1 cells, 24 hours incubation
Procedure: as §1, §2, §3

Compound: CCCCC[C@H](O)/C=C/[C@@H]1[C@@H](C/C=C\CCCC(=O)NC2CC2)[C@@H](O)C[C@H]1O [Compound 6, Prostaglandin F2α Amide with Cyclopropylamine]
- EC50 (3T3-L1 cells [1]): 124 ± 2 µM
- ability to reduce intraocular pressure (in words) (normotensive rabbits): more prominent
- IOP reduction (normotensive rabbits): 3.30 mm Hg
- NO generation, % to control (3T3-L1 cells [2]): 5%

Compound: CCCCCC(O)C=CC1C(O)CC(O)C1CC=CCCCC(=O)NC(CO)C(=O)O [Compound 2, Prostaglandin F2α Amide with L-Serine]
- EC50 (3T3-L1 cells [1]): > 200 µM
- NO generation, % to control (3T3-L1 cells [2]): 25%

Compound: prostaglandin F2α
- calcium sensor fluorescence increase relative to control (3T3-L1 cells [3]): 195 AU

Compound: Prostaglandin F2α Amide with γ-Aminobutyric Acid Nitroethanolamide [Compound 8]
- IOP reduction (normotensive rabbits): 2.00 mm Hg
- NO generation, % to control (3T3-L1 cells [2]): 22%

Compound: CCCCCC(O)C=CC1C(O)CC(O)C1CC=CCCCC(=O)N1CCCC1CO [Compound 7, Prostaglandin F2a Amide with L-Prolinol]
- EC50 (3T3-L1 cells [1]): 104 ± 2 µM
- NO generation, % to control (3T3-L1 cells [2]): 15%

Compound: Prostaglandin F2α Amide with L-Serine Isopropyl Ether [Compound 3]
- EC50 (3T3-L1 cells [1]): 144 ± 3 µM
- ability to reduce intraocular pressure (in words) (normotensive rabbits): more prominent
- IOP reduction (normotensive rabbits): 3.20 mm Hg
- calcium sensor fluorescence increase relative to control (3T3-L1 cells [3]): 405 AU
- nitric oxide level increase relative to control (3T3-L1 cells [2]; 3T3-L1 cells, 25 μM): 60%
- concentration of maximum activity (most effective concentration) for induction of nitrogen oxide generation (3T3-L1 cells [2]; 3T3-L1 cells, tested 25 to 100 μM): 25 µM
- NO generation, % to control (3T3-L1 cells [2]): 15%

Compound: CCCCC[C@H](O)/C=C/[C@@H]1[C@@H](C/C=C\CCCC(=O)NCCOC(=O)NCCO[N+](=O)[O-])[C@@H](O)C[C@H]1O [Compound 11, Prostaglandin F2α Amide with 2-Aminoethyl-[2-(Nitroxy)Ethyl]Carbamate]
- EC50 at 24 h [4]: 184 ± 3 µM
- IOP reduction (normotensive rabbits): 1.50 mm Hg
- NO generation, % to control (3T3-L1 cells [2]): 28%

Compound: CCCCC[C@H](O)/C=C/[C@@H]1[C@@H](C/C=C\CCCC(=O)NCCO)[C@@H](O)C[C@H]1O [prostamide F2, prostaglandin F2α ethanolamide]
- calcium sensor fluorescence increase relative to control (3T3-L1 cells [3]): 185 AU

Compound: Prostaglandin F2α Amide with L-Nitroserine [Compound 1]
- EC50 (3T3-L1 cells [1]): 226.4 ± 2 µM
- NO generation, % to control (3T3-L1 cells [2]): 7%

Compound: Prostaglandin F2α Amide with L-Nitroserine Isopropyl Ether [Compound 5]
- EC50 (3T3-L1 cells [1]): 195 ± 2 µM
- IOP reduction (normotensive rabbits): 1.20 mm Hg
